Test results reported in US20250100963A1, “SULFONATED AND PHOSPHORYLATED AROMATIC MOLECULES” (Xavier University of Louisiana, priority 2023, published 2025).
Like-named read-outs stand apart in the source and are kept apart here.

Columns and labels:
Type in all cases: biochemical
[1] = target: T1, CatG (Homo sapiens, UniProt P08311); assay: CatG-mediated degradation of laminin, SDS-PAGE; details: inhibitor 10-1000 μM, CatG 0.8 μM, 60 min
T1 sequence (P08311 21-244): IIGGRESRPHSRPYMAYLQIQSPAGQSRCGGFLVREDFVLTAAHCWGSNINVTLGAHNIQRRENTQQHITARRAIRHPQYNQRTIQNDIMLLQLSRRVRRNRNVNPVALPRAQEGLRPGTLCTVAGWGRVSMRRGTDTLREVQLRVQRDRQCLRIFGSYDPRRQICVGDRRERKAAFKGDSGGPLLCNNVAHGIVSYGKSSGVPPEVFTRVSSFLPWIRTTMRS
Protocol: The method further comprises inhibition of CatG-mediated degradation of laminin. Inhibition of CatG cleavage of laminin by sulfonated or phosphorylated compounds was studied using SDSPAGE. Briefly, CatG (0.8 μM) was incubated with different concentrations of the inhibitor (final concentrations; 0 μM, 10 μM, […] and 1000 μM), and laminin (20 μg). Following incubation for 60 min, the samples were quenched using SDS-PAGE loading buffer containing DTT and subjected to electrophoresis on 10% SDS-PAGE pre-cast gels. The gels were visualized by silver staining. […] In fact, based on their in vitro properties, it was reasoned that these inhibitors could protect extracellular matrix components from proteolysis mediated by proteinases activated during the inflammatory process including CatG. Accordingly, the in vitro effect of compound of Formula II on the CatG-mediated proteolysis of laminin, a non-collagenous component of ECM and basement membranes was studied. […] Thus, SDS-PAGE analyses indicate that sulfonated molecule inhibition of CatG is physiologically relevant.
Inhibition of CatG cleavage of laminin by sulfonated compounds was studied using SDSPAGE. Briefly, CatG (0.8 μM) was incubated with different concentrations of the inhibitor (final concentrations; 0 μM, 10 μM, 100 μM and 1000 μM), and laminin (20 μg). […]

[2] = target: Human FXIa (Homo sapiens, UniProt P03951); assay: Direct inhibition of FXIa, chromogenic substrate hydrolysis assay; details: Tris-HCl buffer
Protocol: Direct inhibitions of thrombin (FIIa), factor VIIa (FVIIa), factor IXa (FIXa), factor Xa (FXa), FXIa, factor XIIa (FXIIa), trypsin and chymotrypsin were evaluated using the corresponding chromogenic substrate hydrolysis assays as previously reported. Briefly, to each well of a 96-well microplate containing 85-185 μl of […] Tris buffer containing 100 mM NaCl, 2.5 mM CaCl2, 0.1% PEG 8000, and 0.05% tween 80 at 25 (thrombin) or 37° C. (FVIIa, FIXa, FXa, FXIa, FXIIa, chymotrypsin, and trypsin) were added 5 μl of enzyme (thrombin, FVIIa, FIXa, FXa, FXIa, FXIIa, chymotrypsin, and trypsin) and 5 μl of the inhibitor. Following an incubation period of 5 min, the appropriate chromogenic substrates (Spectrozyme TH, Spectrozyme FIXa, Spectrozyme FXa, S-2366, Spectrozyme FXIIa and S-2222) were added and the residual enzyme activity was measured from the initial rate of increase in absorbance at 405 nm. Relative residual enzyme activity as a function of the inhibitor concentration was fitted using Logistic Equation (1) to obtain the IC50 (potency), A Y % (efficacy) of enzyme inhibition, and HS (Hill slope). The concentrations of enzymes and substrates in microplate cells were: 6 nM and 50 μM for thrombin; 1.09 nM and 125 μM for FXa; 5 nM and 125 μM for FXIIa; 89 nM and 850 μM for FIXa; 8 nM and 1000 µM for FVIIa (along with 40 nM recombinant tissue factor); 72.5 ng/ml and 80 μM for bovine trypsin; and 500 ng/ml and 240 μM for bovine chymotrypsin.

[3] = target: T1, CatG; assay: Salt-dependent direct inhibition of human CatG; details: for HS (Hill slope) / IC50 / ΔY (efficacy): pH 7.4, 37° C.; for Ki: estimated by IC50 to Ki conversion, noncompetitive model, read-out: Calculated Ki
From the text: The Ki (μM) values were estimated using an IC50 to Ki conversion equation [19].
Although the sulfonated and/or phosphorylated compounds-CatG interaction is likely to be electrostatically driven, non-ionic forces may contribute to a significant extent. A significant non-ionic binding energy component increases the interaction specificity because the majority of non-ionic forces, for example, cation—π interactions, H-bonding and others depend strongly on the orientation and the distance of interacting pair of molecules. In contrast, ionic bonds are non-directional and less dependent on distance, which may increase initial interaction but offer less selectivity of recognition. […] The IC50 values were measured spectrophotometrically under various salt concentrations (100 and 200 mM), as described above. […] Subsequently, the corresponding Ki (nM) values were estimated using a formula previously reported following a classical model of noncompetitive enzyme inhibition and the results are reported below. […] Table 4 and FIG. 4.

Chain of Human FXIa (P03951 388-625): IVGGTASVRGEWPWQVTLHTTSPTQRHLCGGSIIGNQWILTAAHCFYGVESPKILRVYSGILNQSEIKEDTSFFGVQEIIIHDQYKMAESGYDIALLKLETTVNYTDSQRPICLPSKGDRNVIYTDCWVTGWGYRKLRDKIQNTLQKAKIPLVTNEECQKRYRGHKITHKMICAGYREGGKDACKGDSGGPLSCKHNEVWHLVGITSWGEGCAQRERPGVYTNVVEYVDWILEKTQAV
Chain of Human FXIa (P03951 19-387 partner): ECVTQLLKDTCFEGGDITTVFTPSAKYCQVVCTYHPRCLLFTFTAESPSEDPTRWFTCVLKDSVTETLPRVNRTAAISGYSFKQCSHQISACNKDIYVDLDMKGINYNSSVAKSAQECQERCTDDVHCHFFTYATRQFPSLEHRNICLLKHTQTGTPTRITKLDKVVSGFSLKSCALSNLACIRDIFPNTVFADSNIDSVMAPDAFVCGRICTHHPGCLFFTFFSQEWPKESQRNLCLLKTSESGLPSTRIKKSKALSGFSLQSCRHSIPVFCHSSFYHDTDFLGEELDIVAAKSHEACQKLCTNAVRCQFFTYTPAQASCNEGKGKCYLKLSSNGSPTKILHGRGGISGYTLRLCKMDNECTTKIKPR

- Protection of laminin from cleavage by CatG [1]: protected completely
- IC50 [2]: > 500000 nM
- Decrease in potency on 2-fold increase in salt concentration ([3]; 100 vs 200 mM salt): ~10 fold
- HS (Hill slope) ([3]; [NaCl] 100 mM): 1.5 ± 0.3
- IC50 ([3]; [NaCl] 100 mM): 90 ± 10 nM
- ΔY (efficacy) ([3]; [NaCl] 100 mM): 82.5 ± 7.4%
- Ki ([3]; [NaCl] 100 mM): ~75 nM
- HS (Hill slope) ([3]; [NaCl] 200 mM): 1.5 ± 0.3
- IC50 ([3]; [NaCl] 200 mM): 920 ± 150 nM
- ΔY (efficacy) ([3]; [NaCl] 200 mM): 75.2 ± 3.4%
- Ki ([3]; [NaCl] 200 mM): ~910 nM
Structure (SMILES): O=C(Nc1cc(C(=O)Nc2ccc(S(=O)(=O)O)cc2S(=O)(=O)O)cc(C(=O)Nc2ccc(S(=O)(=O)O)cc2S(=O)(=O)O)c1)Nc1cc(C(=O)Nc2ccc(S(=O)(=O)O)cc2S(=O)(=O)O)cc(C(=O)Nc2ccc(S(=O)(=O)O)cc2S(=O)(=O)O)c1 [Formula II, 4,4′,4″,4′-((5,5′-(carbonylbis(azanediyl))bis(isophthaloyl))tetrakis(azanediyl))tetrakis(benzene-1,3-disulfonic acid)]
